From US4228274A, “1-Substituted glycopyranosides” (Merck & Co., Inc., priority 1978, dated 1980)
Several values for one entry are separate records, joined by “and”; a condition that tells them apart may be missing. Identical values can stand only once.

Assays:
[1] = test system: fat cells (isolated adipose cells); assay: In Vitro Fat Cell Bioassay (insulin-like activity, conversion of glucose-1-14C to 14CO2); format: cell-based; settings: for 14-CO2: average CPM, baseline not subtracted, repeat lines are separate runs
Procedure: It is known that fat cells incubated in Krebs-Ringer bicarbonate buffer containing glucose and albumin convert glucose-1-^14 C to ^14 CO2. […] This is the basis of the bioassay of insulin-like activity described in J. Gliemann, Diabetes, 14, 643(1965). The method for preparing the necessary isolated adipose cells retaining their metabolic activity is described in M. Rodbell, J. Biol. Chem., 239, 375(1964).
The compounds of the present invention have been bioassayed for their insulin-like activity essentially by the process set forth in Gliemann and Rodbell.
*All compounds were tested at 100 μg./ml.
**Insulin standard at 25 μu/ml.
1. An average CPM value is taken of each group.
2. The average value of Baseline (Buffer control) is subtracted from the
average of each of the remaining groups.
3. In order to obtain Relative Activity percentage, the average CPM value
for each compound (minus the average CPM value of the control group) is
divided by the average CPM value in the insulin standard (minus the
average CPM value of the controls), and the resultant value multiplied by
100 to obtain % activity.

[2] = test system: fat cells (isolated adipose cells); settings: fat cells in Krebs-Ringer bicarbonate buffer containing glucose and albumin; known from Gliemann; cited from earlier work
[3] = compounds tested at 100 μg./ml, baseline subtracted, relative to insulin standard 25 μu/ml = 100%

Row | Compound | 14-CO2 ([1]; compounds tested at 100 μg./ml) | activity at 100 µg/mL [1, 3] [%] | Relative Activity % [1, 3] [%] | stimulation of 14CO2 production [2] | Relative Activity % ([1]; Insulin standard at 25 μu/ml, reference set to 100%) [%]
1 | NCCCCCCO[C@H]1O[C@H](CO)[C@@H](O)[C@H](O)[C@@H]1O [1-(6-aminohexyl) α-D-mannopyranoside, 1-(6-aminohexyl)-α-D-mannopyranoside] | 3330 cpm | 28 | – | – | –
2 | NCCCCCCS[C@@H]1O[C@H](CO)[C@@H](O)[C@H](O)[C@@H]1O [1-[(6-aminohexyl)thio]-1-deoxy-β-D-mannopyranoside] | 4898 cpm and 5177 cpm | 93 | 78 | – | –
3 | NCCCCCCC(=O)N[C@@H]1O[C@H](CO)[C@@H](O)[C@H](O)[C@@H]1O [1-[(7-aminoheptanoyl)amino]-1-deoxy-β-D-mannopyranoside] | 1952 cpm | 26 | – | – | –
4 | Insulin: Insulin standard at 25 μu/ml | – | – | – | stimulation of severalfold | 100
